Holding throughout (assay): MIC serial dilution assay
What all share (assay type): cell-based

One experiment concerns Candida albicans. Conditions: Candida albicans DSM1665; overnight, 30 °C; reference nystatin 1 mg/mL; read-out: Minimum Inhibitory Concentration (MIC). Here is the method:
(§1) Compounds 1, 2, 4 and 5 were dissolved in MeOH (1 mg/mL) for the antimicrobial activity assay, while compound 3 was dissolved in MeOH: DMSO 9+1 (1 mg/mL). The solvents were also used as negative controls.
(§2) Minimum inhibitory concentrations (MIC) were determined in a serial dilution assay, as described previously; a detailed protocol can be found in the Supporting Information. The compounds (1 mg/mL) were diluted to a range of 66.7 to 0.52 µg/mL and incubated with the test organisms overnight. Inhibition of growth was visually evaluated the next day: the MIC is defined as the lowest concentration of the test compound where no growth of the test organism was observed. Various test organisms of fungal and bacterial origin were tested to cover a broad range of microorganisms. This selection is also being used as a standard test panel in our attempts to discover new anti-infectives, as it represents a broad spectrum of pathogens of clinical interest, as well as sensitive indicator strains (bacteria: Bacillus subtilis, Staphylococcus aureus, Micrococcus luteus, Chromobacterium violaceum, Escherichia coli and Pseudomonas aeruginosa; mycobacteria: Mycolicibacterium smegmatis and fungi: Candida albicans, Schizosaccharomyces pombe, Mucor hiemalis, Pichia anomala and Rhodotorula glutinis).
(§3) Protocol: Antimicrobial Activi ty Assay
(§4) The assay was conducted as a minimum inhi bitory concentration (MIC) assay in 96-well ro und-bottom mi crotiter pl ate s usi ng the p ar ameter s su mm ari zed i n T a bl e S 1 and as already described i n [S1].
(§5) Stocks of the test organi sms were generated by growing the organisms o ver ni ght i n 50 mL shaki ng fl asks fi ll ed wi th 25 mL of the growth medi um at 140 rpm (for media and temperatures see Table S1). If the organisms were well grown the ne xt day, which was checked by occurrence of an optical density (OD)>30 of the suspension (OD600 nm for bacteria, OD548 nm for fungi and M. smegma tis) , aliquots of these were stored i n 1.5 mL reaction tube s in a freezer at −80 °C for up to 12 mo nths . Upon use, aliquots were unth awed and the OD of the suspension measured and adjusted by diluting with the respective growth medi um. OD600 nm w as adj usted to 0.01 and OD548 nm to 0.1.
(§6) Subse que ntly, 150 µL o f the adjusted suspensions were added to all wells of a 96-wel l microtiter pl ate (one test organi sm per plate). In row A, additional 130 µL of suspensions plus 20 µL of the test compounds (1 mg/mL) and the controls (one compound/column) were added. MeOH as well as MeOH:DMSO 9+1 were used as negative controls, while different positive controls (refer ences) were used for the test organisms (see Tabl e S1). Then, starti ng from row A, 150 µ L of the suspension were transferred to the next row, the contents thoroughly mixed, and 150 µ L transferred to the following row.
(§7) The remaining 150 µ L after row H were discarded. […]
(§8) compounds, ranging from 66.7 µg/mL i n row A to 0.52 µg/mL i n row H.
(§9) The microtiter plates were then incubated overnight o n a microplate shaker at 800 rpm at 30 or 37 °C (see Table S1) and were visually evaluated the next day. The MIC is defined as the lowest concentration were no growth of the test organism was o bserved. A lower MIC thus corresponds to a higher antimicrobial activity of the test compound.
(§10) Table S1: MIC assay ex per i men t parameters test organism strain No. growth incubation positive control (reference) […]
Candida albicans DSM1665 MYC 3 30 nyst ati n 1.0 mg/mL […]
(§11) Rhodotorula glutinis DSM10134 MYC 3 30 nyst ati n 1.0 mg/mL
(§12) 1 MHB: Müller-Hinton Broth (SN X927.1, Ca r l Roth GmbH, Karlsruhe, Germany) 2 7H9+ADC: Middlebrook 7H9 Broth Base + Middlebrook ADC Growth Supplement (SN M0678+M0553, Merck, Darmstadt, Germany)
(§13) 3 MYC: 1 % w/v, bacto peptone, 1% w/v yeast extract, 2 % w /v glycerol, pH 6.3 [S1] Helaly, S.E.; Ashrafi, S.; Teponno, R.B.; Bernecker, S.; Dababat, A.A.; Maier, W.; Stadler, M.
(§14) Nematicidal Cyclic Lipodepsipeptides and a Xanthocillin Derivative from a Phaeosphariaceous […]

Another experiment has as its system Pichia anomala. Conditions: Hansenula anomala; Pichia anomala DSM6766; overnight, 30 °C; reference nystatin 1 mg/mL; read-out: Minimum Inhibitory Concentration (MIC). Here is the method:
as §1, §2, §3, §4, §5, §6, §7, §8, §9, §10
Pichia anomala DSM6766 MYC 3 30 nyst ati n 1.0 mg/mL
as §11, §12, §13, §14

Experiment [1] has as its system Schizosaccharomyces pombe. The note with it: Schizosaccharomyces pombe DSM70572; overnight, 30 °C; reference nystatin 1 mg/mL; read-out: Minimum Inhibitory Concentration (MIC). Here is the method: as §1, §2, §3, §4, §5, §6, §7, §8, §9, §10
Schizosaccharomyces DSM70572 MYC 3 30 nyst ati n 1.0 mg/mL […]
as §11, §12, §13, §14

The test system of another experiment is Escherichia coli. Conditions: Escherichia coli DSM1116; overnight, 37 °C; reference oxytetracycline 0.1 mg/mL; read-out: Minimum Inhibitory Concentration (MIC). Here is the method: as §1, §2, §3, §4, §5, §6, §7, §8, §9, §10
Escherichia coli DSM1116 MHB 1 37 oxytetr acyclin 0.1 mg/mL […]
as §11, §12, §13, §14

For the next experiment, the system named is Rhodotorula glutinis. The note with it: Rhodotorula glutinis, DSM10134, Rhodotorula glutinis DSM10134; overnight, 30 °C; reference nystatin 1 mg/mL; read-out: Minimum Inhibitory Concentration (MIC). How it is done:
as §1, §2, §3, §4, §5, §6, §7, §8, §9, §10, §11, §12, §13, §14

For experiment [2], the system named is Mycolicibacterium smegmatis. Conditions: Mycolicibacterium smegmatis ATCC700084; overnight, 37 °C; reference kanamycin 0.1 mg/mL; read-out: Minimum Inhibitory Concentration (MIC). Here is the method: as §1, §2, §3, §4, §5, §6, §7, §8, §9, §10, §11, §12, §13, §14
Another experiment relates to Pseudomonas aeruginosa. The note with it: Pseudomonas aeruginosa PA14; overnight, 37 °C; reference gentamicin 0.1 mg/mL; read-out: Minimum Inhibitory Concentration (MIC). How it is done:
as §1, §2, §3, §4, §5, §6, §7, §8, §9, §10
Pseudomonas a erugi nosa PA14 MHB 1 37 gent amici n 0.1 mg/mL […]
as §11, §12, §13, §14

For a further experiment, the system named is Micrococcus luteus. Conditions: overnight, 30 °C, reference oxytetracycline 0.1 mg/mL; for MIC: Micrococcus luteus, DSM1790, Micrococcus luteus DSM1790, read-out: Minimum Inhibitory Concentration (MIC). Here is the method:
as §1, §2, §3, §4, §5, §6, §7, §8, §9, §10
Micrococcus luteu s DSM1790 MHB 1 30 oxytetr acyclin 0.1 mg/mL […]
as §11, §12, §13, §14

In the next experiment the test system is Mucor hiemalis. The note with it: Mucor hiemalis DSM2656; overnight, 30 °C; reference nystatin 1 mg/mL; read-out: Minimum Inhibitory Concentration (MIC). Here is the method: as §1, §2, §3, §4, §5, §6, §7, §8, §9, §10
Mucor hiemalis DSM2656 MYC 3 30 nyst ati n 1.0 mg/mL […]
as §11, §12, §13, §14

Values after ≈ are worked out from the molar mass of the structure shown.

As to `Oc1cccc2c3c(ccc12)-c1ccc(O)c2c(O)ccc-3c12` [Compound 1, viridistratin A], the MIC with Candida albicans was > 66.7 µg/mL; in the experiment with Pichia anomala, 66.7 µg/mL (≈ 222 µM); in experiment [1], 66.7 µg/mL (≈ 222 µM); with Escherichia coli, > 66.7 µg/mL; with Rhodotorula glutinis, 33.3 µg/mL (≈ 111 µM); in experiment [2], > 66.7 µg/mL. Also, the values for the MIC with Pseudomonas aeruginosa, in the experiment on Micrococcus luteus and with Mucor hiemalis were > 66.7 µg/mL, 16.7 µg/mL (≈ 55.6 µM) and 66.7 µg/mL (≈ 222 µM), respectively.

As for `COc1cccc2c3c(ccc12)-c1ccc(O)c2c(O)ccc-3c12` [Compound 2, viridistratin B], the MIC in the experiment with Candida albicans was > 66.7 µg/mL; in the experiment on Pichia anomala, 33.3 µg/mL (≈ 106 µM); in experiment [1] it was 33.3 µg/mL (≈ 106 µM); in the experiment with Escherichia coli, > 66.7 µg/mL; in the experiment with Rhodotorula glutinis it was 33.3 µg/mL (≈ 106 µM); in experiment [2] it was 33.3 µg/mL (≈ 106 µM). Moreover, the MIC is > 66.7 µg/mL with Pseudomonas aeruginosa, 8.3 µg/mL (≈ 26.4 µM) in the experiment on Micrococcus luteus and 4.2 µg/mL (≈ 13.4 µM) in the experiment with Mucor hiemalis.

In the case of `COc1cccc2c3c(ccc12)-c1ccc(O)c2c(OC)ccc-3c12` [Compound 3, viridistratin C], the MIC (in the experiment on Candida albicans; in the experiment with Pichia anomala; in [1]; in the experiment with Escherichia coli; with Rhodotorula glutinis; in experiment [2]) was > 66.7 µg/mL in each case. The MIC with Pseudomonas aeruginosa and in the experiment with Mucor hiemalis was > 66.7 µg/mL each time.

As for `O=C1C[C@H]2C(=C3CCC(=O)c4c(O)ccc2c43)c2cccc(O)c21` [Compound 4, truncatone A], the MIC (with Candida albicans; in the experiment with Pichia anomala; in [1]; with Escherichia coli; in the experiment on Rhodotorula glutinis; in experiment [2]) was > 66.7 µg/mL each time. Moreover, the MIC with Pseudomonas aeruginosa is > 66.7 µg/mL; with Micrococcus luteus it was 16.7 µg/mL (≈ 52.5 µM); in the experiment on Mucor hiemalis it was > 66.7 µg/mL. Further, the “Minimum Inhibitory Concentration (MIC)” value in the experiment with Micrococcus luteus (Micrococcus luteus DSM1790) is 33.3 µg/mL.

For `O=C1CCC(=O)c2c1c(O)cc1c2-c2ccc(O)c3c(O)ccc-1c23` [Compound 5, truncatone C], the MIC (in the experiment with Candida albicans; in the experiment on Pichia anomala; in [1]; in the experiment on Escherichia coli; in experiment [2]; in the experiment on Pseudomonas aeruginosa) was > 66.7 µg/mL each time. Further, the MIC in the experiment on Micrococcus luteus was determined as 16.7 µg/mL (≈ 50.3 µM); in the experiment on Mucor hiemalis, 66.7 µg/mL (≈ 201 µM).

Values taken from paper PMC7277860, “Viridistratins A−C, Antimicrobial and Cytotoxic Benzo[j]fluoranthenes from Stromata of Annulohypoxylon viridistratum (Hypoxylaceae, Ascomycota)” (Biomolecules, 2020).
